Source: article PMC6563844, “Identification and in vivo Efficacy Assessment of Approved Orally Bioavailable Human Host Protein-Targeting Drugs With Broad Anti-influenza A Activity” (Frontiers in Immunology, 2019)
Read-outs that look alike come from different tables or passages of the source.

What was measured:
[1] = tested on: H1N1 A/Puerto Rico/8/34 (PR8)
[2] = tested on: influenza strains A/Puerto Rico/8/34 (PR8), A/Mexico/InDRE4487/2009 (H1N1pdm09), A/Victoria/36/2011 (H3N2); assay type: cell-based, influenza A virus
[3] = tested on: PR8; experiment: microbe, parasite or virus in culture; assay type: cell-based, influenza A virus
[4] = tested on: pH1N1 (H1N1pdm09 A/Mexico/InDRE4487/2009); experiment: microbe, parasite or virus in culture; assay type: cell-based, influenza A virus
[5] = in vitro; conditions: dog
Experimental: (§1) The MTT assay was performed according to the manufacturer's protocol (Thermo Fisher Vybrant MTT Cell Proliferation Assay Kit). Briefly, MDCK cells grown in a 96-well-plate were treated with the respective drugs at 5-fold descending concentrations starting at 500 mM or left untreated. After 24 h, medium was replaced by PBS containing 1 mM MTT. After incubation for 4 h at 37°C, supernatants were removed, mixed with DMSO and further incubated for 10 min at 37°C before absorption was measured at 562 nm using a PHOmo Microplate reader. To calculate the relative cytotoxicity, the absorbance of untreated cells was set to 1. The 50% cytotoxic concentration (CC50) was calculated using GraphPad 6, and the selectivity index (SI) represents the ratio of CC50 to EC50.

[6] = tested on: H3N2 (A/Victoria/36/2011); experiment: microbe, parasite or virus in culture; assay type: cell-based, influenza A virus
[7] = tested on: H1N1 and H3N2 influenza A viruses (PR8, H1N1pdm09, H3N2); experiment: microbe, parasite or virus in culture; assay type: cell-based
[8] = tested on: PR8; parameters: species or system C57BL/6 mice; conditions: mouse, in vivo, po
[9] = tested on: MDCK cells; experiment: MTT assay (cytotoxicity); conditions: MDCK cells, 24 h, MTT
Experimental: as §1

[10] = MTT assay (cytotoxicity); conditions: dog
Experimental: as §1

[11] = tested on: H1N1pdm09 (A/Mexico/InDRE4487/2009); parameters: species or system ferrets (mustela putorius furo); conditions: in vivo
[12] = read-out: EC50 (50% effective dose)

SMILES: CC[C@]1(O)C[C@@H]2CN(CCc3c([nH]c4ccccc34)[C@@](C(=O)OC)(c3cc4c(cc3OC)N(C)[C@H]3[C@@](O)(C(=O)OC)[C@H](OC(C)=O)[C@]5(CC)C=CCN6CC[C@]43[C@@H]65)C2)C1 [Vinblastine]
- Inhibitory effect [1]: toxic
- antiviral activity [1]: no antiviral activity
- toxicity in the screen [1]: pronounced toxicity

SMILES: CCC(CC)O[C@@H]1C=C(C(=O)O)C[C@H](N)[C@H]1NC(C)=O [oseltamivir carboxylate]
- concentration completely inhibiting replication [2]: higher than 5 μM
- EC50 ([3]; read-out: EC50): 0.005 µM
- EC50 [4]: ~0.2 µM

SMILES: NCCCC(O)(P(=O)(O)O)P(=O)(O)O [Alendronate]
- Inhibitory effect [1]: toxic
- antiviral activity [1]: no antiviral activity

SMILES: CCCCC1=NC2(CCCC2)C(=O)N1Cc1ccc(-c2ccccc2-c2nnn[nH]2)cc1 [Irbesartan]
- Inhibitory effect [1]: toxic
- antiviral activity [1]: no antiviral activity
- toxicity in the screen [1]: pronounced toxicity

SMILES: CN1CCC(=C2c3ccccc3CC(=O)c3sccc32)CC1 [Ketotifen]
- reduction of viral titers [2]: 100 fold
- CC50 at 24 h [5]: 291 ± 14.8 µM
- EC50 ([3]; Influenza A virus, PR8, MDCK): 5.9 ± 0.2 µM
- Inhibitory effect (fold inhibition) [1]: >10-fold inhibition
- antiviral activity in initial screen [1]: able to inhibit infection at doses above 50 μM without causing toxicity
- EC50 ([6]; Influenza A virus, H3N2, MDCK): 48.5 ± 2 µM
- EC50 [7, 12]: 5 to 50 µM
- EC50 ([4]; Influenza A virus, MDCK, pH1N1): 33.7 ± 1.3 µM

SMILES: Nc1ncnc2c1ncn2[C@@H]1O[C@H](COP(=O)(O)OP(=O)(O)OP(=O)(O)O)[C@@H](O)[C@H]1O [Adenosine triphosphate]
- Inhibitory effect [1]: No inhibition
- antiviral activity in initial screen [1]: no antiviral activity

SMILES: CC(=O)N[C@@H]1[C@@H](O)[C@H](O)[C@@H](CO)O[C@@H]1O [N-Acetyl-D-Glucosamine]
- Inhibitory effect [1]: No inhibition
- antiviral activity in initial screen [1]: no antiviral activity

SMILES: O=[N+]([O-])[O-].O=[N+]([O-])[O-].O=[N+]([O-])[O-].[Ga+3] [Gallium nitrate]
- reduction of viral titers [2]: around 10 fold
- effect on lung viral titers [8]: no significant effect
- EC50 ([3]; read-out: EC50): 54.8 ± 2.2 µM
- CC50 [9]: 716 ± 116 µM
- Inhibitory effect (fold inhibition) [1]: >10-fold inhibition
- antiviral activity in initial screen [1]: able to inhibit infection at doses above 50 μM without causing toxicity
- EC50 ([6]; read-out: EC50): 5.7 ± 0.9 µM
- EC50 ([4]; pH1N1): 55.3 ± 2.9 µM

SMILES: O=C1CCC(N2C(=O)c3ccccc3C2=O)C(=O)N1 (centres unmarked) [Thalidomide]
- Inhibitory effect [1]: No inhibition
- antiviral activity in initial screen [1]: no antiviral activity

SMILES: CC(O)(P(=O)(O)O)P(=O)(O)O [Etidronic Acid]
- Inhibitory effect [1]: No inhibition
- antiviral activity in initial screen [1]: no antiviral activity

SMILES: CCOC(=O)C1=C[C@@H](OC(CC)CC)[C@H](NC(C)=O)[C@@H](N)C1 [Oseltamivir]
- CC50 at 24 h [5]: 470 ± 12.3 µM
- EC50 ([3]; Influenza A virus, PR8, MDCK): 0.005 ± 0.0004 µM
- EC50 ([6]; Influenza A virus, H3N2, MDCK): 0.05 ± 0.003 µM
- EC50 ([4]; Influenza A virus, MDCK, pH1N1): 0.2 ± 0.05 µM

SMILES: O=C1CC[C@@]2(O)[C@H]3Cc4ccc(O)c5c4[C@@]2(CCN3CC2CC2)[C@H]1O5 [Naltrexone]
- reduction of viral titers [2]: 100 fold
- effect on lung viral titers [8]: no significant effect
- EC50 ([3]; Influenza A virus, PR8, MDCK): 4.7 ± 0.2 µM
- CC50 at 24 h [10]: 5230 ± 227 µM
- Inhibitory effect (fold inhibition) [1]: >10-fold inhibition
- antiviral activity in initial screen [1]: able to inhibit infection at doses above 50 μM without causing toxicity
- inhibition efficiency [6]: less efficient
- EC50 ([6]; Influenza A virus, H3N2, MDCK): > 500 µM
- EC50 [7]: 5 to 50 µM
- EC50 ([4]; Influenza A virus, MDCK, pH1N1): 48 ± 3.2 µM

SMILES: N[C@@H](CCC(=O)O)C(=O)O [L-Glutamic Acid]
- Inhibitory effect [1]: No inhibition
- antiviral activity in initial screen [1]: no antiviral activity

SMILES: COc1ccc2c(c1)[C@]13CCCC[C@@H]1[C@H](C2)N(C)CC3 [Dextromethorphan]
- reduction of viral titers [2]: around 1,000 fold
- effect on lung viral titers [8]: more variable but significant reduction
- EC50 ([3]; Influenza A virus, PR8, MDCK): 48.7 ± 2.3 µM
- clinical score [11]: significantly lower peak score
- weight loss [11]: < 10%
- body weight effect ([11]; po): slightly increase the weight loss
- effect on nasal wash titers ([11]; po): no effect
- CC50 at 24 h [10]: 3546 ± 11.1 µM
- Inhibitory effect (fold inhibition) [1]: >10-fold inhibition
- antiviral activity in initial screen [1]: able to inhibit infection at doses above 50 μM without causing toxicity
- EC50 ([6]; Influenza A virus, H3N2, MDCK): 51.7 ± 4.2 µM
- EC50 [7, 12]: 5 to 50 µM
- EC50 ([4]; Influenza A virus, MDCK, pH1N1): 50.8 ± 3.3 µM

SMILES: CN(C)/N=N/c1[nH]cnc1C(N)=O [Dacarbazine]
- Inhibitory effect [1]: no inhibition
- antiviral activity in initial screen [1]: no antiviral activity

SMILES: CC(C)NCC(O)c1ccc(O)c(O)c1 (centres unmarked) [Isoproterenol]
- Inhibitory effect [1]: toxic
- antiviral activity [1]: no antiviral activity
- toxicity in the screen [1]: pronounced toxicity

SMILES: N=C(N)NC(=O)c1nc(Cl)c(N)nc1N [Amiloride]
- Inhibitory effect [1]: No inhibition
- antiviral activity in initial screen [1]: no antiviral activity

SMILES: CCOC(=O)C1=C[C@@H](OC(CC)CC)[C@H](NC(C)=O)[C@@H](N)C1 [Oseltamivir phosphate, oseltamivir phosphate]
- reduction of lung titers [8]: 28 fold
- clinical score [11]: minimal clinical score peaking on day 3
- reduction in nasal wash titers ([11]; po): 10 fold
